This note sets out measurements from patent US12331051B2 (priority 2021, dated 2025).

In assay [1] the target is T1, Alpha 1A adrenergic receptor (Homo sapiens, UniProt P35348).
T1 construct: expressed in transfected cells; host or cells: HEK-293
T1 sequence (P35348 1-466): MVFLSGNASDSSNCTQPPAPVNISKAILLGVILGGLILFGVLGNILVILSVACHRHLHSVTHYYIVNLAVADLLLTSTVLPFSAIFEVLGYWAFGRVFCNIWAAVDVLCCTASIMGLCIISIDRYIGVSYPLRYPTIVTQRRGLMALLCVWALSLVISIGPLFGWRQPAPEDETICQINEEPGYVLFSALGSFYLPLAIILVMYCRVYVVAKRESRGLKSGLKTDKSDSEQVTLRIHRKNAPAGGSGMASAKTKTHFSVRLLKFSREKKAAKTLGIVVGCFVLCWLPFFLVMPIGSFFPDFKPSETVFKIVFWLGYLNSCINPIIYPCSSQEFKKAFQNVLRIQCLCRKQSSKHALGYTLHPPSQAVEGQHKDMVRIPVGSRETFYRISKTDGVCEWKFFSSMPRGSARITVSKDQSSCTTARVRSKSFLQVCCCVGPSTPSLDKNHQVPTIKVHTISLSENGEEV
Description: Functional assay in HEK-293 cells (Ca2+ flux). It counts as cell-based. The method, then:
(§1) Neuro-receptor binding and functional effects of the “E559 polymorph” was examined by analyzing binding affinity [Ki (nM)], functional agonist activity [EC50 (nM)], and functional antagonist activity [IC50 (nM)] against a panel of key receptors in neurophysiological disorders. Binding and functional assays were performed at “E559 polymorph” concentrations of 0.0003, 0.003, 0.01, 0.03, 0.1, 0.3, 1, and 10 μM. In binding assays, cell membrane homogenates, expressing each receptor target, were incubated with the corresponding radio-ligand in absence or presence of several concentration of the “E559 polymorph” compound. The measurement of binding affinity of the “E559 polymorph” is represented in TABLE XIII by Ki (nM) which was calculated as percent inhibition of the binding of a radioactively labeled reference ligand at each receptor. In functional assays the HEK-293 cells expressing each receptor target were suspended in buffer and distribute in microplates and incubated for 30 minutes at room temperature or 37° C. in the presence of buffer alone (basal control), the reference agonist or antagonist, or the “E559 polymorph. Following incubation, the cells were lysed and the appropriate fluorescent probe (Ca2+ flux, cAMP, or IP1) were added for 60 minutes to measure the fluorescence transfer at the appropriate wavelength using a microplate reader. The cellular agonist effect (EC50) was calculated as a percent of control response to a known reference agonist and the cellular antagonist effect (IC50) was calculated as a percent inhibition of control reference agonist response for each receptor.
(Calcium flux is commonly read through the fluorescence of an indicator in the cells.)

Assay [2] deals with T2, Alpha 2A adrenergic receptor (Homo sapiens, UniProt P08913).
T2 construct: expressed in transfected cells; host or cells: HEK-293
T2 sequence (P08913 1-465): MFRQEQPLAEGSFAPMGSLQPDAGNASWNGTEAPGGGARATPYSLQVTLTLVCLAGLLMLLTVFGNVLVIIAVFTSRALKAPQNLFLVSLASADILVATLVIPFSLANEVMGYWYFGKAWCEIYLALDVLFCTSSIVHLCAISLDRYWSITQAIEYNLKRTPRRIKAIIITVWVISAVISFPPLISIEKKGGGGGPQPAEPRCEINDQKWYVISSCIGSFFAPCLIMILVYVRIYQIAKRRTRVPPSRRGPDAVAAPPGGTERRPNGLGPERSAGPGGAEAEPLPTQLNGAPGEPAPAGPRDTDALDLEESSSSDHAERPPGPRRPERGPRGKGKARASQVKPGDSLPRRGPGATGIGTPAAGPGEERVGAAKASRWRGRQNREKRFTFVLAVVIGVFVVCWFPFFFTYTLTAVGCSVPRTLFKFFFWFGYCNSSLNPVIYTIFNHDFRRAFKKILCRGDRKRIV
Put plainly: Functional assay in HEK-293 cells (Ca2+ flux). It counts as cell-based. Here is the method:
as §1

For another assay, the target named is T3, 5-HT1E (Homo sapiens, UniProt P28566).
T3 construct: expressed in transfected cells; host or cells: HEK-293
Put plainly: Functional assay (Arrestin). It is filed as cell-based.

For another assay, the system named is mice. Put plainly: Tolerance after repeated dosing, HTR to DOI challenge. It counts as in vivo, mouse. As to conditions: IP once daily 7 days: DOI 10 mg/kg/day, E559 polymorph 3 mg/kg/day; DOI 1 mg/kg challenge 24 hours later. Here is the method: To determine if repeated dosing of the “E559 polymorph” can induce tolerance in vivo, HTR experiment described in Examples 2 and 5 was repeated where mice received IP injections of vehicle, DOI (10 mg/kg/day), or the “E559 polymorph” (3 mg/kg/day; once daily for 7 consecutive days) and were then challenged with DOI (1 mg/kg) 24 hours later. Data shown in FIG. 22 are group means±standard deviation for the entire 60 minutes test session. Asterisks indicate statistical significances compared to the Vehicle control (Vehicle was saline).

T3 sequence (P28566 whole entry): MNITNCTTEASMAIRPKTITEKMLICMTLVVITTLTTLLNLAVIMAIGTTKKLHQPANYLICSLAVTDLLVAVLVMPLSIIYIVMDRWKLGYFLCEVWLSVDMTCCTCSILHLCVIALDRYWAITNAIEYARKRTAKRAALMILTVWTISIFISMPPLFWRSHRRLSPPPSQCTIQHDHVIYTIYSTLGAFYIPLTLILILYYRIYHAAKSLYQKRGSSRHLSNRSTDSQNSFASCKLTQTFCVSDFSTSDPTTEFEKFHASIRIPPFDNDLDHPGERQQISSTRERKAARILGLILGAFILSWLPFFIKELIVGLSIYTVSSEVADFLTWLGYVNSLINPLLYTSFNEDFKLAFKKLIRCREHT

`CCN(CC)C(=O)[C@@H]1C=C2c3cccc4[nH]c(Br)c(c34)C[C@H]2N(C)C1` [E559, (5R, 8R)-2-Bromo-9,10-didehydro-N,N-diethyl-6-methylergoline-8-carboxamide hemi-D-tartrate]: the EC50 is 0.051 µM in assay [1], > 10 µM in assay [2] and > 10 µM on 5-HT1E. Also, the figures for the IC50 in assay [1] and in assay [2] were > 10 µM and 0.26 µM, respectively. The maximum response (Emax) at 5-HT1E (Arrestin, ligand 5-HT, read-out: Functional Assay (agonist) Emax) amounted to 8.7%. The “tolerance (tachyphylaxis) after repeated dosing, HTR count on DOI challenge” value with mice was “no tolerance was observed”.

The term EC50 denotes the midpoint of the concentration-response curve. Lower therefore signals an effect from little substance. A word on the IC50: it is the midpoint of a concentration-inhibition curve. In general, Emax refers to the maximal effect, on the per cent scale that the assay sets.
